How the values were obtained:
[1] = test system: Salmonella typhimurium; assay: Ames test averaged in reverts/plate with Salmonella Typhimurium TA1538 at 0.13 mg/plate; format: functional, Salmonella enterica subsp. enterica serovar Typhimurium
[2] = test system: Salmonella typhimurium; assay: Ames test averaged in revertants/plate with Salmonella Typhimurium TA98 at 0.13 mg/plate; format: functional, Salmonella enterica subsp. enterica serovar Typhimurium
[3] = test system: Salmonella typhimurium; assay: Ames test averaged in revertants/plate with Salmonella Typhimurium TA98 at 1.0 mg/plate; format: functional, Salmonella enterica subsp. enterica serovar Typhimurium
[4] = test system: Salmonella typhimurium; assay: Ames test averaged in revertants/plate with Salmonella Typhimurium TA1538 at 0.25 mg/plate; format: functional, Salmonella enterica subsp. enterica serovar Typhimurium
[5] = test system: Salmonella typhimurium; assay: Ames test averaged in revertants/plate with Salmonella Typhimurium TA98 at 0.50 mg/plate; format: functional, Salmonella enterica subsp. enterica serovar Typhimurium
[6] = test system: Salmonella typhimurium; assay: Ames test averaged in revertants/plate with Salmonella Typhimurium TA98 at 0.25 mg/plate; format: functional, Salmonella enterica subsp. enterica serovar Typhimurium
[7] = test system: Salmonella typhimurium; assay: Ames test averaged in revertants/plate with Salmonella Typhimurium TA1538 at 0.50 mg/plate; format: functional, Salmonella enterica subsp. enterica serovar Typhimurium
[8] = test system: Salmonella typhimurium; assay: Ames test averaged in revertants/plate with Salmonella Typhimurium TA1538 at 1.0 mg/plate; format: functional, Salmonella enterica subsp. enterica serovar Typhimurium
[9] = Partition coefficient (logP); format: physicochemical; conditions: octanol/water
[10] = test system: Salmonella typhimurium; assay: Ames test averaged in revertants/plate with Salmonella Typhimurium TA1538 at 0.13 mg/plate; format: functional, Salmonella enterica subsp. enterica serovar Typhimurium
[11] = test system: Salmonella typhimurium; assay: Ames test averaged in revertants/plate with Salmonella Typhimurium TA98 at 2.5 mg/plate; format: functional, Salmonella enterica subsp. enterica serovar Typhimurium
[12] = test system: Salmonella typhimurium; assay: Ames test averaged in revertants/plate with Salmonella Typhimurium TA1538 at 2.5 mg/plate; format: functional, Salmonella enterica subsp. enterica serovar Typhimurium
[13] = test system: Salmonella typhimurium; assay: Ames test averaged in revertants/plate with Salmonella Typhimurium TA1538 at 5 mg/plate; format: functional, Salmonella enterica subsp. enterica serovar Typhimurium
[14] = test system: Salmonella typhimurium; assay: Ames test averaged in revertants/plate with Salmonella Typhimurium TA98 at 5 mg/plate; format: functional, Salmonella enterica subsp. enterica serovar Typhimurium
[15] = test system: Salmonella typhimurium; assay: Ames test averaged in revertants/plate with Salmonella Typhimurium TA98 at 0.5 mg/plate; format: functional, Salmonella enterica subsp. enterica serovar Typhimurium
[16] = test system: Salmonella typhimurium; assay: Ames test averaged in revertants/plate with Salmonella Typhimurium TA1538 at 0.5 mg/plate; format: functional, Salmonella enterica subsp. enterica serovar Typhimurium
[17] = test system: Salmonella typhimurium; assay: Ames test averaged in revertants/plate with Salmonella Typhimurium TA98 at 0.1 mg/plate; format: functional, Salmonella enterica subsp. enterica serovar Typhimurium
[18] = test system: Salmonella typhimurium; assay: Ames test averaged in revertants/plate with Salmonella Typhimurium TA1538 at 0.1 mg/plate; format: functional, Salmonella enterica subsp. enterica serovar Typhimurium

logP [9] | Compound | Revertants/plate [1] | Revertants/plate [2] | Revertants/plate [3] | Revertants/plate [4] | Revertants/plate [5] | Revertants/plate [6] | Revertants/plate [7] | Revertants/plate [8] | Revertants/plate [10] | Revertants/plate [11] | Revertants/plate [12] | Revertants/plate [13] | Revertants/plate [14] | Revertants/plate [15] | Revertants/plate [16] | Revertants/plate [17] | Revertants/plate [18]
 | CC(=O)Nc1ccc2c(c1)S(=O)(=O)c1ccccc1-2 | 0 | 0 | 4 | 0 | 2 | 0 | 2 | 2 |  |  |  |  |  |  |  |  | 
3.44 | CCc1ccc2c(c1)C(=O)c1ccc(NC(C)=O)cc1S2(=O)=O |  | 0 | 0 | 0 | 0 | 0 | 1 | 2 | 1 |  |  |  |  |  |  |  | 
2.76 | CC(=O)Nc1ccc2c(c1)S(=O)(=O)c1ccc(C)cc1C2=O |  | 1 | 8 | 2 | 0 | 0 | 0 | 5 | 0 |  |  |  |  |  |  |  | 
3.51 | CCCc1ccc2c(c1)C(=O)c1ccc(NC(C)=O)cc1S2(=O)=O |  | 0 | 0 | 0 | 0 | 0 | 0 | 0 | 0 |  |  |  |  |  |  |  | 
2.35 | CC(=O)Nc1ccc2c(c1)S(=O)(=O)c1ccccc1C2=O |  |  |  |  |  |  |  |  |  | 0 | 0 | 0 | 0 | 0 | 0 | 0 | 0

Compound | logP [9] | Revertants/plate [1] | Revertants/plate [2] | Revertants/plate [3] | Revertants/plate [4] | Revertants/plate [5] | Revertants/plate [6] | Revertants/plate [7] | Revertants/plate [8] | Revertants/plate [10] | Revertants/plate [11] | Revertants/plate [12] | Revertants/plate [13] | Revertants/plate [14] | Revertants/plate [15] | Revertants/plate [16] | Revertants/plate [17] | Revertants/plate [18]
CC(=O)Nc1ccc2c(c1)[nH]c1ccccc12 | 3.02 |  | 725 | 456 | 762 | 468 | 732 | 699 | 775 | 679 |  |  |  |  |  |  |  | 

Source: ChEMBL document CHEMBL1121482, “Prevention of Ames test mutagenicity by chemical modification in a series of monoamine oxidase inhibitors” (J Med Chem, 1980)
